According to patent publication EP3338775B1, “USE OF BUTYLIDENEPHTHALIDE” (Everfront Biotech Inc., priority 2015, dated 2017):

What was measured:
Format in all cases: cell-based
[1] = system: NHOKs (normal human oral keratinocytes); experiment: MTT viability assay on normal human oral keratinocytes; details: BP 0, 25, 50 and 100 µg/ml for 24 hours; Figure 2
Method: NHOKs (normal human oral keratinocytes) and HNC-TIC (head and neck cancer-derived tumor initiating cell)-like oral stem cells (i.e., ALDH1^+CD44^+-1 cell line or ALDH1^+CD44^+-2 cell line) were treated with different concentrations (0, 25, 50 and 100 µg/ml) of BP for 24 hours, and then, an MTT assay was utilized to analyzed the viabilities of NHOKs and HNC-TIC-like oral stem cells (i.e., ALDH1^+CD44^+-1 cell line and ALDH1^+CD44^+-2 cell line).

EZH2 = experiment: Western blotting of EZH2 protein in brain CSCs CD133+; details: BP 0, 12.5, 25, 50, 62.5 and 75 µg/ml; Figure 3
Method: It has been known that EZH2 (enhancer of zeste homolog 2) gene is a critical growth related factor of cancer stem cells, and it will affect the growth and growth characteristics of cancer stem cells. Brain CSCs ^CD133+ was treated with different concentrations (0, 12.5, 25, 50, 62.5 and 75 µg/ml) of BP, and then, proteins were extracted from the cells to conduct Western blotting to determine the expression of EZH2 protein in the BP-treated brain CSCs ^CD133+.

[2] = system: Sox-2, CD133 and CD44 proteins; experiment: Western blotting of stemness-maintenance markers in MiaPaCa-2 cells; details: BP 0, 12.5, 25 and 50 µg/ml for 24 hours; Figure 6
Method: It has been known that CD44, CD133, Sox-2 (sex-determining region Y protein (SRY)-related high-mobility group box 2) and Oct4 (octamerbinding transcription factor 4) proteins all are stemness-maintenance markers of cancer stem cells and participate in the regulation of the self-renewal and differentiation of cancer stem cells. Brain CSCs ^CD133+ was treated with different concentrations (0, 12.5, 25, 50, 62.5 and 75 µg/ml) of BP for 24 hours, and then, proteins were extracted from the cells to conduct Western blotting to determine the expressions of CD133, Sox-2 and Oct4 proteins in the BP-treated brain CSCs ^CD133+. In addition, MiaPaCa-2 cell line (i.e., a cell line of pancreatic cancer cells) was treated with different concentrations (0, 12.5, 25, and 50 µg/ml) of BP for 24 hours, and then, proteins were extracted from the cells to conduct Western blotting to determine the expressions of Sox-2, CD133 and CD44 proteins in the BP-treated MiaPaCa-2 cells. […]

[3] = system: HNC-TIC-like oral stem cells (ALDH1^+CD44^+-1 cell line or ALDH1^+CD44^+-2 cell line); experiment: Transwell invasion assay with HNC-TIC-like oral stem cells; details: BP 0, 25 and 50 µg/ml for 24 hours
Source text: In this research, the effect of BP on inhibiting the migration and invasion of cancer stem cells was further investigated by a transwell invasion assay system (i.e., Transwell^○,R system, purchased from Corning, UK) with a polycarbonate filter membrane of 8-µm pore size (purchased from Coming, UK). First, the polycarbonate filter membrane was coated with Matrigel™ (purchased from BD Pharmingen, USA), and then, the coated membrane was placed in the lower chamber of the transwell invasion assay system. Then, the lower chamber was filled with 10% serum-containing medium. On the other hand, HNC-TIC-like oral stem cells (i.e., ALDH1^+CD44^+-1 cell line or ALDH1^+CD44^+-2 cell line) were treated with different concentrations (0, 25 and 50 µg/ml) of BP for 24 hours, and then, the treated cells of each group was cultured in the upper chamber which was filled with serum-free medium, at a cell density of 1×10^5 cells/100 µl for 24 hours. […] The invasion cancer cells of each group were counted and photographed over five visual fields of the membrane with the use of a 100-fold magnification under a microscope. The relative invasion ability of cells of each experimental group was calculated based on the result of the group treated with 0 µg/ml of BP.

Question: Which “viability of NHOKs” value [1] does the source give for `CCCC=C1OC(=O)c2ccccc21` [BP, butylidenephthalide] here?
Answer: did not decrease

Question: And the “expression of EZH2 protein in brain CSCs ^CD133+” value (EZH2)?
Answer: significantly decreased

Question: And the “expressions of Sox-2, CD133 and CD44 proteins in MiaPaCa-2 cells” value [2]?
Answer: significantly decreased

Question: And the “number of cells on the polycarbonate filter membrane” value ([3]; Figure 11A)?
Answer: significantly reduced

Question: And the “relative invasion ability of cancer stem cells” value ([3]; relative to 0 µg/ml group, Figure 11B)?
Answer: decreased along with the increment in the concentration of BP
